Assays:
[1] = test system: Mythimna separata; test: Efficacy test against Mythimna separata (treated artificial feed); assay type: in vivo; details: 1 μl of Emulsion (I) (5% active ingredient) in 0.8 g artificial feed; second-instar larvae; 25° C.; fifth day
Method: (§1) 5 parts of the compound of the present invention, 93.6 parts of dimethylformamide and 1.4 parts of polyoxyethylene alkyl aryl ether were mixed and dissolved to prepare Emulsion (I) including 5% of an active ingredient.
For the control, Emulsion (II) was prepared by mixing and dissolving 93.6 parts of dimethylformamide and 1.4 parts of polyoxyethylene alkyl aryl ether.
(§2) An insect mortality rate was calculated by the numerical equation shown below.
(§3) Insect mortality rate (%)={(Number of dead insects)/(Number of sample insects)}×100
0.8 g of a commercially available artificial feed (Insecta LFS, manufactured by Nosan Corporation) and 1 μl of Emulsion (I) were mixed thoroughly. Thereby, a test feed was obtained.
The test feed was placed in an amount of 0.2 g in each of the treatment areas of a plastic test container (volume: 1.4 ml). Subsequently, two second-instar larvae of Mythimna separata were inoculated into each treatment area, and the test container was sealed with a plastic lid in order to prevent the larvae from escaping. The sealed container was placed in a thermostatic chamber at 25° C., and the insect mortality rate and the amount of feed consumed were determined on the fifth day. The test was performed twice.
As the control areas, the insect mortality rate and the amount of feed consumed were determined in the same manner as that described in Test Example 1, with the exception of replacing Emulsion (I) with Emulsion (II).

[2] = test system: Plutella xylostella; test: Efficacy test against Plutella xylostella (cabbage leaf dip); assay type: in vivo; details: foliar, 72 h, cabbage leaves soaked 30 seconds, second-instar larvae, 3 days after inoculation, read-out: insect mortality rate
Method: as §1, §2, §3
Emulsion (I) was diluted with water so that the concentration of the compound of the present invention was 125 ppm. Cabbage leaves were soaked in the diluted liquid for 30 seconds. Subsequently, the cabbage leaves were put on Petri dishes, followed by inoculating 5 second-instar larvae of Plutella xylostella. The Petri dishes were placed in a thermostatic chamber at a temperature of 25° C. and humidity of 60%. Mortality was investigated 3 days after inoculation, and the insect mortality rate was calculated. The test was performed twice.

[3] = test system: Phyllotreta striolata; test: Efficacy test against Phyllotreta striolata (spray on bok-choi seedlings); assay type: in vivo; details: 168 h, sprayed on bok-choi seedlings, adults, 7 days after inoculation, read-out: insect mortality rate
Method: as §1, §2, §3
Emulsion (I) was diluted with water so that the concentration of the compound of the present invention was 125 ppm, to prepare a diluted liquid for testing. The aforementioned diluted liquid was sprayed on bok-choi seedlings (7th major leaf-development period) planted in No. 3 pots. After the bok-choi seedlings were subjected to air-drying, the seedlings were placed in plastic cups, followed by inoculating 10 adult Phyllotreta striolata. The plastic cups were stored in a thermostatic chamber at a temperature of 25° C. and humidity of 65%. Mortality was investigated 7 days after inoculation, and the insect mortality rate was calculated. The test was performed twice.

[4] = test system: Aphis craccivora; test: Efficacy test against Aphis craccivora (spray on black-eyed pea plants); assay type: in vivo; details: in Vigna unguiculata, 96 h, sprayed on black-eyed pea plants, nymphs, 4 days after spraying, read-out: insect mortality rate
Method: as §1, §2, §3
Black-eyed pea plants were raised in No. 3 pots and the primary leaves were inoculated with nymphs of Aphis craccivora. Emulsion (I) was diluted with water so that the concentration of the compound of the present invention was 125 ppm. Subsequently, the aforementioned diluted liquid was sprayed on the black-eyed pea plants on which the nymphs of Aphis craccivora were parasitic. The aforementioned black-eyed pea plants were then placed in a thermostatic chamber with a temperature of 25° C. and humidity of 60%. Mortality was investigated 4 days after spraying was carried out, and the insect mortality rate of Aphis craccivora was calculated. The test was performed twice.

[5] = test system: Nilaparvata lugens; test: Efficacy test against Nilaparvata lugens (rice seedling dip); assay type: in vivo; details: 168 h, rice seedlings soaked 30 seconds, second-instar larvae, 7 days after inoculation, read-out: insect mortality rate
Method: as §1, §2, §3
Emulsion (I) was diluted with water so that the concentration of the compound of the present invention was 125 ppm. Rice seedlings were soaked in the diluted liquid for 30 seconds, and subjected to air-drying. Subsequently, the rice seedlings were placed in plastic cases, followed by inoculating 5 second-instar larvae of Nilaparvata lugens. The plastic cases were placed in a thermostatic chamber at a temperature of 25° C. and humidity of 65%. Mortality was investigated 7 days after inoculation, and the insect mortality rate was calculated. The test was performed twice.

With CCS(=O)(=O)c1cnc(-n2cccn2)nc1-c1nc2cc(C(F)(F)F)cnc2n1C [A-20] the “insect mortality rate or amount of feed consumed relative to control area” value [1] was “mortality rate against Mythimna separata was 100%, or the amount of feed consumed was 10% or less”.
Compound CCS(=O)(=O)c1cnc(-n2nccc2N)nc1-c1nc2cc(C(F)(F)F)cnc2n1C [A-27, 1-(5-(ethylsulfonyl)-4-(3-methyl-6-(trifluoromethyl)-3H-imidazo[4,5-b]pyridin-2-yl)pyrimidin-2-yl)-1H-pyrazol-5-amine] has a melting point of 247 to 249 °C.
For CCOC(=O)c1cnn(-c2ncc(S(=O)(=O)CC)c(-c3nc4cc(C(F)(F)F)cnc4n3C)n2)c1N [A-26, ethyl 5-amino-1-(5-(ethylsulfonyl)-4-(3-methyl-6-(trifluoromethyl)-3H-imidazo[4,5-b]pyridin-2-yl)pyrimidin-2-yl)-1H-pyrazole-4-carboxylate], the “insect mortality rate or amount of feed consumed relative to control area” value [1] was “mortality rate against Mythimna separata was 100%, or the amount of feed consumed was 10% or less”, the mortality at 125 ppm [2] was ≥ 80% and the mortality at 125 ppm [3] was ≥ 80%. For the same compound, the mortality at 125 ppm [4] was ≥ 80%.
In the case of CCS(=O)(=O)c1cnc(OC)nc1-c1nc2cc(C(F)(F)F)cnc2n1C [A-23], the “insect mortality rate or amount of feed consumed relative to control area” value [1] is reported as “mortality rate against Mythimna separata was 100%, or the amount of feed consumed was 10% or less”.
For CCS(=O)(=O)c1cnc(NC)nc1-c1nc2cc(C(F)(F)F)cnc2n1C [A-16], the “insect mortality rate or amount of feed consumed relative to control area” value [1] was “mortality rate against Mythimna separata was 100%, or the amount of feed consumed was 10% or less”.
For CCS(=O)(=O)c1cnc(-c2ncn(C)n2)nc1-c1nc2cc(C(F)(F)F)cnc2n1C [A-5], the “insect mortality rate or amount of feed consumed relative to control area” value [1] was “mortality rate against Mythimna separata was 100%, or the amount of feed consumed was 10% or less”.
In the case of CCS(=O)(=O)c1cnc(NCCN)nc1-c1nc2cc(C(F)(F)F)cnc2n1C [A-28], the “insect mortality rate or amount of feed consumed relative to control area” value [1] is reported as “mortality rate against Mythimna separata was 100%, or the amount of feed consumed was 10% or less”.
With CCS(=O)(=O)c1cnc(N)nc1-c1nc2cc(C(F)(F)F)cnc2n1C [A-13] the “insect mortality rate or amount of feed consumed relative to control area” value [1] was “mortality rate against Mythimna separata was 100%, or the amount of feed consumed was 10% or less”.
In the case of CCS(=O)(=O)c1cnc(-c2ncccn2)nc1-c1nc2cc(C(F)(F)F)cnc2n1C [A-2, 2-(5-(ethylsulfonyl)-[2,2′-bipyrimidin]-4-yl)-3-methyl-6-(trifluoromethyl)-3H-imidazo[4,5-b]pyridine], the “insect mortality rate or amount of feed consumed relative to control area” value [1] is reported as “mortality rate against Mythimna separata was 100%, or the amount of feed consumed was 10% or less”, the mortality at 125 ppm [2] is reported as ≥ 80% and the mortality at 125 ppm [5] is reported as ≥ 80%. For the same compound, the mortality at 125 ppm [3] was ≥ 80% and the mortality at 125 ppm [4] was ≥ 80%.
For CCS(=O)(=O)c1cnc(-n2ncnc2N)nc1-c1nc2cc(C(F)(F)F)cnc2n1C [A-12, 1-(5-(ethylsulfonyl)-4-(3-methyl-6-(trifluoromethyl)-3H-imidazo[4,5-b]pyridin-2-yl)pyrimidin-2-yl)-1H-1,2,4-triazol-5-amine], the “insect mortality rate or amount of feed consumed relative to control area” value [1] was “mortality rate against Mythimna separata was 100%, or the amount of feed consumed was 10% or less”, the mortality at 125 ppm [2] was ≥ 80% and the mortality at 125 ppm [5] was ≥ 80%. For the same compound, the mortality at 125 ppm [3] was ≥ 80%.
Work on CCS(=O)(=O)c1cnc(NN)nc1-c1nc2cc(C(F)(F)F)cnc2n1C [A-24, 2-(5-(ethylsulfonyl)-2-hydrazineylpyrimidin-4-yl)-3-methyl-6-(trifluoromethyl)-3H-imidazo[4,5-b]pyridine] yielded a melting point of 227 to 229 °C.
In the case of CCS(=O)(=O)c1cnc(-n2ccc(N)n2)nc1-c1nc2cc(C(F)(F)F)cnc2n1C [A-25], the “insect mortality rate or amount of feed consumed relative to control area” value [1] is reported as “mortality rate against Mythimna separata was 100%, or the amount of feed consumed was 10% or less”.
Work on CCS(=O)(=O)c1cnc(-c2ncccn2)nc1-c1nc2cc(SC(F)(F)F)ccc2o1 [A-7, 2-(5-(ethylsulfonyl)-[2,2′-bipyrimidin]-4-yl)-5-((trifluoromethyl)thio)benzo[d]oxazole] yielded a melting point of 223 to 225 °C.
In the case of CCS(=O)(=O)c1cnc(N)nc1-c1nc2cc(SC(F)(F)F)ccc2o1 [A-10], the “insect mortality rate or amount of feed consumed relative to control area” value [1] is reported as “mortality rate against Mythimna separata was 100%, or the amount of feed consumed was 10% or less”.
Work on CCS(=O)(=O)c1cnc(-c2ncccn2)nc1-c1nc2cc(S(=O)(=O)C(F)(F)F)ccc2o1 [A-9, 2-(5-(ethylsulfonyl)-[2,2′-bipyrimidin]-4-yl)-5-((trifluoromethyl)sulfonyl)benzo[d]oxazole] yielded a melting point of 118 to 124 °C.
CCS(=O)(=O)c1cnc(-c2ncccn2)nc1-c1nc2cc([S+]([O-])C(F)(F)F)ccc2o1 (stereo not drawn) [A-8, 2-(5-(ethylsulfonyl)-[2,2′-bipyrimidin]-4-yl)-5-((trifluoromethyl)sulfinyl)benzo[d]oxazole] gave a melting point of 192 to 195 °C.
In the case of CCS(=O)(=O)c1cnc(N(C)C)nc1-c1nc2cc(C(F)(F)F)cnc2n1C [A-17], the “insect mortality rate or amount of feed consumed relative to control area” value [1] is reported as “mortality rate against Mythimna separata was 100%, or the amount of feed consumed was 10% or less”.
